Converted amounts (≈) assume the structure as drawn. Where a SMILES comes first, the peptide text is derived from it. Bridges are numbered along the chain shown (N, C = ends). The star is where a group is joined. Octanoyl = CCCCCCCC(=O)*
How the values were obtained:
PLC-γ1 = target: T1, PLC-γ1 (Bos taurus, UniProt P08487); test: PLC-inhibiting activity ([3H]PIP2 hydrolysis); assay type: biochemical; conditions: test peptide concentration 220 μM; PI-PLC-γ1 from bovine thymus; 37° C., 10 minutes
T1 construct: A sample of PLC-γ1 was prepared from bovine thymus; from tissue; host or cells: bovine thymus
T1 sequence (P08487 1-1291): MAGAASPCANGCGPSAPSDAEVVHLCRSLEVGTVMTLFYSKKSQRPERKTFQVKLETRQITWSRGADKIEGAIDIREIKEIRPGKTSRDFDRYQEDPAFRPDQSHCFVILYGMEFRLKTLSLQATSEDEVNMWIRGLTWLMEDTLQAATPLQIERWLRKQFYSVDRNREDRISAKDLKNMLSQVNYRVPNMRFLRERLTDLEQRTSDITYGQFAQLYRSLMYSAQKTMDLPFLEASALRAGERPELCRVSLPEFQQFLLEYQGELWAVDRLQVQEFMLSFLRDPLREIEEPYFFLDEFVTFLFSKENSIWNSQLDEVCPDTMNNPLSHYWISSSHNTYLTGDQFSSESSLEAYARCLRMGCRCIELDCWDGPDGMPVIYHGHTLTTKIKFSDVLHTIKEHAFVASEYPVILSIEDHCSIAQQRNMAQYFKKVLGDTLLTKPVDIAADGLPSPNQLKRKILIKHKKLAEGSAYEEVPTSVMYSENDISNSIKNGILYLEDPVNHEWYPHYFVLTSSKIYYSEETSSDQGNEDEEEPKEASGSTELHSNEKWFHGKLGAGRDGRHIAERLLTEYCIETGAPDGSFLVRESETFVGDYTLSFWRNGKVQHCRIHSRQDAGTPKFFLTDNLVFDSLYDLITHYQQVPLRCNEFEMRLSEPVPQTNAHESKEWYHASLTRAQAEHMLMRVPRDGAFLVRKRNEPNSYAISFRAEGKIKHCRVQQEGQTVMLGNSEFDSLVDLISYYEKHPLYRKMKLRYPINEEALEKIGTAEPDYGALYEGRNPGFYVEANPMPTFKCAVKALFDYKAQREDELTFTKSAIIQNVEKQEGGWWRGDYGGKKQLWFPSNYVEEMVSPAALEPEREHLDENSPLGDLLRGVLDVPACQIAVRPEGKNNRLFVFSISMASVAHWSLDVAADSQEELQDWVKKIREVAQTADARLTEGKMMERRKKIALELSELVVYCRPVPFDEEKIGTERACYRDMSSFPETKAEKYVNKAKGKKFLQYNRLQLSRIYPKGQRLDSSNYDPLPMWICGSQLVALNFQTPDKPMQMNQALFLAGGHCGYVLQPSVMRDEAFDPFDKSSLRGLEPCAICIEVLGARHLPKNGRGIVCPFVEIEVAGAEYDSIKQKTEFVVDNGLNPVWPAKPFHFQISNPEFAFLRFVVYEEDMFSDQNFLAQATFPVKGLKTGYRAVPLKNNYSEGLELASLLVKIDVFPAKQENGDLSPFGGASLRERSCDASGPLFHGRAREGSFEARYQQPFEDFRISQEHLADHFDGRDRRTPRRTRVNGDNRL
Method: A sample of PLC-γ1 was prepared from bovine thymus according to the method described in Y. Homma et al., Biochem.J., 269, 13 (1990).
A solution having the composition shown in Table 2 was prepared on ice and the reaction was initiated by heating it to 37° C. After incubation for 10 minutes, 2 ml of a chloroform-methanol (2:1, V/V) mixed solution was added to stop the reaction. The produced inositol phosphate was extracted with 0.5 ml of 1N hydrochloric acid. The extract was separated into two liquid phases by centrifugation (2000×g, 3 minutes) and the amount of ^3 H in the supernatant (0.7 ml) was measured with a scintillation counter. […]
Percent inhibition (X) was calculated from the following equation.
where A is the obtained value of specific radioactivity, B is the value of specific radioactivity when the same amount of water was added instead of an aqueous solution of a test peptide, and C is the value of specific radioactivity when the same amount of water was added instead of a sample and an aqueous solution of a test peptide.

[1] = tested on: Proteus vulgaris ATCC6897; assay type: cell-based; conditions: ATCC6897, pH 7
Method: Antimicrobial activity was determined by an agar dilution method using a medium consisting of Bacto-tryptone (available from Difco) (3 g/l), meat extract (1 g/l), glucose (1 g/l) and agar (16 g/l) (pH 7.0).

KMS-4 cells = test: Cell proliferation-inhibiting activity (BrdU incorporation); assay type: cell-based; conditions: test peptide concentration 6 μM, incubation for 17 hours
Method: The cell proliferation-inhibiting activity of the test peptides was determined using a cell proliferation-detecting kit available from Amersham in the following manner. KMS-4 cells (M. Nanba et al., International Journal of Cancer, 32, 697 (1983)) were added to a DMEM medium containing a 10% fetal calf serum (available from Nissui Pharmaceutical) and the cell concentration was adjusted to 1-2×10^4 cells/ml. The resulting cell suspension (1 ml) was then placed in each well of a 24-well plate (available from Corning) and incubated in a CO2 incubator (37° C., 5% CO2) for 2 days. Subsequently, the medium was replaced with a fresh DMEM medium containing a 10% fetal calf serum, and a test peptide was added, followed by incubation for 17 hours. […] The number of cells which incorporated BrdU and the total number of cells were counted within one visual field (about 200 cells) under microscopic examination and the percentage (%) of the stained cell counts per visual field was calculated. […] Cell proliferation-inhibiting activity was expressed by percent cell proliferation inhibition (X) which was calculated from the following equation. […]

CCCCCCCC(=O)N[C@H]1CSSC[C@@H](C(N)=O)NC(=O)[C@H](C(C)C)NC(=O)[C@@H]2CCCN2C(=O)[C@H](Cc2ccc(O)cc2)NC(=O)[C@H](CCCNC(=N)N)NC(=O)[C@H](CC(C)C)NC(=O)[C@H](CCCNC(=N)N)NC(=O)[C@H](CCSC)NC(=O)[C@H](CCCCN)NC(=O)[C@H](CCCNC(=N)N)NC(=O)[C@H](Cc2ccc(O)cc2)NC(=O)[C@H](CC(C)C)NC1=O [Compound (I-4)] (Octanoyl-CLYRKMRLRYPVC-NH2; disulfide 1-13)
inhibition at 220 µM (PLC-γ1): 56% | minimum inhibitory concentrations (MIC) [1]: 166 µg/mL (≈ 91 µM) | Inhibition (%) of cell proliferation (KMS-4 cells): 61%

Reference: patent US5847074A, “Phospholipase C-inhibiting peptides” (Kyowa Hakko Kogyo Co., Ltd., priority 1993, dated 1998)
